Values quoted from earlier work in US10755801B2, “Identifying peptides having T-cell-exposed motifs with known frequency of occurrence in a reference database” (IOGENETICS, LLC, priority 2014, dated 2020).
Ends that are not written are not given here.

System: CD8+ responses, HLA A 0201 restricted
Details: MART-1 peptides, A*0201, melanoma patients; Kawakami

In the case of GIGILTVIL, the “CD8+ T-cell response” value is listed as “stimulated a response”.
